Columns and labels:
Test in all cases: relative viability (nuclei count vs DMSO), 5 days (fraction); higher = more cells survive
[1] = compound: CC(C)=CC[C@@H](O)C1=CC(=O)c2c(O)ccc(O)c2C1=O [Shikonin]
Procedure, shortened: (§1)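 On vehicle-anchored 1536-well plates, lung cancer cell lines held overnight at 37 °C were pinned with five library-drug doses (not always all listed) spaced by √10. With no medium change over 5 days, they were then fixed, permeabilised and Hoechst-stained in one step and imaged at 4×. MetaXpress counted nuclei, and viability is the median across plates of treated-well over vehicle-well nuclei. Acceptance needed control CV below 25% and at least one doubling.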

[2] = compound: CC(C)N(CCCNC(=O)Nc1ccc(C(C)(C)C)cc1)C[C@H]1O[C@@H](n2ccc3c(N)ncnc32)[C@H](O)[C@@H]1O
Procedure, shortened: as §1

[3] = compound: CC(C)=CC[C@@H](O)C1=CC(=O)c2c(O)ccc(O)c2C1=O [Shikonin] + CC1(C)CCC(c2ccc(Cl)cc2)=C(CN2CCN(c3ccc(C(=O)NS(=O)(=O)c4ccc(N[C@H](CCN5CCOCC5)CSc5ccccc5)c(S(=O)(=O)C(F)(F)F)c4)cc3)CC2)C1 [Navitoclax] (partner 0.5 µM)
Procedure, shortened: (§2)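 The day after seeding in 1536-well plates, lung cancer cell lines were treated by pin tool with a single drug, or with a fixed anchor-drug dose together with five library-drug doses (not always all listed) in √10 steps. After 5 days, a combined fix-and-stain solution (final 0.05% Triton X-100, 1% formaldehyde, 1 ug/ml Hoechst) was added. Nuclei counted on 4× images gave relative viability as treated counts over vehicle counts, reported as the median of duplicate plates.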

[4] = compound: CC(C)=CC[C@@H](O)C1=CC(=O)c2c(O)ccc(O)c2C1=O [Shikonin] + COc1cc2c(Oc3ccc(NC(=O)C4(C(=O)Nc5ccc(F)cc5)CC4)cc3F)ccnc2cc1OCCCN1CCOCC1 [Foretinib] (partner 0.25 µM)
Procedure, shortened: as §2

Cell Line	relative viability ([1]; 0.01 µM)	relative viability ([1]; 0.1 µM)	relative viability ([1]; 0.3162 µM)	relative viability ([1]; 1 µM)	relative viability ([2]; 0.08 µM)	relative viability ([2]; 0.253 µM)	relative viability ([2]; 0.8 µM)	relative viability ([2]; 2.53 µM)	relative viability ([2]; 8 µM)	relative viability ([3]; first compound 0.01 µM)	relative viability ([3]; first compound 0.1 µM)	relative viability ([3]; first compound 0.3162 µM)	relative viability ([3]; first compound 1 µM)	relative viability ([4]; first compound 0.01 µM)	relative viability ([4]; first compound 0.1 µM)	relative viability ([4]; first compound 0.3162 µM)	relative viability ([4]; first compound 1 µM)
LU99A	1.02	1	0.996	0.923	0.876	0.842	1.04	0.979	1.02	0.924	0.88	0.833	0.766	0.854	0.815	0.797	0.744
NCI-H1355	0.981	1.08	1.02	1.04	0.913	0.915	0.75	1.03	0.879	0.81	0.939	0.995	0.983	1.03	1.16	1.04	1.04
HCC-78	0.942	1.14	1.04	1.15	1.05	0.787	0.942	0.875	1	0.718	0.964	0.942	0.841	0.562	0.621	0.614	0.627
HCC-15	1.06	1.04	1.12	1.09	0.938	0.986	0.786	0.979	0.914	0.742	0.655	0.784	0.747	1.05	1.02	1.12	0.986
EKVX	1	0.963	1.08	0.964	1	0.934	0.932	1	0.862	0.828	0.897	1.21	0.903	0.751	0.646	1.05	0.762
NCI-H2126	1.01	1.07	1.07	1.03	0.955	0.918	0.942	0.961	0.905	0.84	0.86	0.879	0.864	1.06	1.2	1.18	1.43
LK-2	1.1	0.955	0.998	1.03	0.886	0.792	1.04	0.966	0.974	0.913	0.866	1.03	0.852	1.15	1.31	1.85	1.16
NCI-H1437	0.989	1.01	0.998	0.989	0.926	0.941	0.92	0.965	0.957	1.14	1.09	1.14	1.12	1.37	1.26	1.26	1.27
COR-L23	1.18	1.02	1.12	0.995	1.04	1.03	1.08	1.01	1.02	1.13	1.26	1.05	0.908	1.05	0.813	1.03	0.988
PC-3 [JPC-3]	1.1	1.05	1.09	1.07	0.969	1.06	0.883	1.03	0.934	0.758	0.848	0.884	0.786	1.06	1.16	1.1	1.1
A549	1.02	0.956	1.07	0.997	0.93	0.877	1.02	0.94	0.933	1.46	1.49	1.35	1.17	1.05	1.03	1.16	1.11
A-427	1.03	1.17	1.02	1.16	0.962	0.93	1.03	0.958	0.984	0.931	1.14	0.99	0.983	1.16	1.26	1.21	1.16
LCLC-97TM1	0.991	1.02	1.08	0.968	1.05	1	1.07	0.903	0.989	0.46	0.4	0.495	0.277	0.949	1.02	0.912	0.962
NCI-H1703	0.994	1.21	0.864	0.646	0.913	1.04	0.803	1.03	0.782	1.12	1.08	0.991	0.19	0.361	0.401	0.319	0.329
SK-LU-1	1.05	1.05	1.21	1.03	1.01	1.06	0.989	1.1	0.941	0.966	0.972	1.08	0.589	0.869	0.907	0.863	0.788
BEN	0.926	1	1.03	1.18	0.954	1.02	0.948	0.863	1.03	0.0555	0.0688	0.0568	0.096	0.576	0.744	0.839	0.848
NCI-H1666	0.966	1.02	1.08	1.05	1.06	1.03	0.975	1.05	0.914	0.923	1.02	0.962	0.723	0.932	1.02	1.01	0.961
LC-2-ad	0.965	1.05	1.01	1.01	0.978	1.03	0.731	0.944	0.882	0.493	0.413	0.552	0.465	0.869	0.989	1.04	1.01

— the supplement of paper PMC10307832
